*1 amine or outer side, *2 acyl side, *3 side chain or, on linkers, in order; H or OH if unused. Where a SMILES comes first, the peptide text is derived from it. Bridges are numbered along the chain shown (N, C = ends). Roman numbers before positions name the chains, in order. [ ]: non-standard residue; d: D form. The star is where a group is joined. Exatecan = CC[C@@]1(O)C(=O)OCc2c1cc1n(c2=O)Cc2c-1nc1cc(F)c(C)c3c1c2[C@@H](N*)CC3; Hexanoyl(6-succinimido-3yl) = O=C1CC([*:1])C(=O)N1CCCCCC(=O)[*:2]; PEG6 = NCCOCCOCCOCCOCCOCCOCCC(=O)O; NHCH2OCH2CO = O=C(COCN[*:1])[*:2]
Key:
Type in all cases: cell-based
HL-60 = assay: Cell killing in HL-60 by CCK-8; settings: HL-60, 48 h
Method: • a) Cell line: HL-60 • b) Procedure • (1) Normally cultured HL-60 cells in the logarithmic growth phase were centrifuged at 800 rpm for 5 min to discard the supernatant. Approximately 3 mL of normal medium was added to resuspend the cell pellet by gently pipetting up and down. The cells were then counted using a cell counter and inoculated onto a 96-well plate. • (2) Sample solutions with different concentration gradients were prepared. Approximately 10 µL of each solution was added to the 96-well plate, with 3 to 6 replicate wells for each concentration, and incubated in a 5% CO2 incubator at 37°C for 48 h. • (3) CCK-8 was equilibrated to room temperature before use, and 10 µL of CCK-8 solution was added to each well. • (4) The plate was incubated in the incubator for 0.5-4 h in the dark, with the incubation time depending on experimental conditions such as cell type and density. • (5) The absorbance was measured at 450 nm using a microplate reader. • c) Data analysis Cell viability = [(As−Ab)/(Ac−Ab)] × 100% [formula] Inhibition% = [(Ac−As)/(Ac−Ab)] × 100% [formula] • As: absorbance of sample well (containing cells + medium + CCK-8 solution + drug solution); • Ac: absorbance of control well (containing cells + medium + CCK-8 solution); • Ab: absorbance of blank well (containing medium + CCK-8 solution); • The results were processed and analyzed using Excel and Graphpad Prism to obtain the IC50. Table 4: Test Results of Cell Killing in HL-60 for 48 h

SSTR2 = target: T1, SSTR2 (Homo sapiens, UniProt P30874); assay: SSTR2 cAMP test
T1 construct: expressed in transfected cells; host or cells: CHO cells (SSTR2/CHO)
T1 sequence (P30874 whole entry): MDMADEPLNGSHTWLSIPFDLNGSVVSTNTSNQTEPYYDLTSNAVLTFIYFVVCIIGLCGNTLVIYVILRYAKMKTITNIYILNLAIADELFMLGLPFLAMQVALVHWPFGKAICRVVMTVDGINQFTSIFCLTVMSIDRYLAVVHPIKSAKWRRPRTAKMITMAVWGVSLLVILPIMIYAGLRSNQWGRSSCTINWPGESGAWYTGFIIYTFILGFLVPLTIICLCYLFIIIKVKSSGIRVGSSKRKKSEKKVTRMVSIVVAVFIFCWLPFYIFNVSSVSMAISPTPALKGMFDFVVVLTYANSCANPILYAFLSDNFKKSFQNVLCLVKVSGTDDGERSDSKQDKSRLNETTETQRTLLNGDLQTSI
Method: • 1) Compound preparation: The test compound was diluted by 4-fold with DMSO to obtain 10 different concentration points. Approximately 100 nL of the diluted compound was then transferred to a cell reaction plate and centrifuged for later use. • 2) Cell preparation:The cultured SSTR2/CHO cells were collected into a sterile centrifuge tube, and the supernatant was discarded by centrifugation. • 3) The cells were resuspended in assay buffer, counted using a Vi-cell counter, and diluted with assay buffer. • 4) Approximately 100 nL of 100 µM Forskolin was transferred into the cell reaction plate using an Echo and centrifuged. Then, 10 µL of assay buffer containing the cells was added and incubated. • 5) Approximately 10 µL of cAMP detection reagent solution was added to the corresponding wells of the cell reaction plate, and incubated at room temperature in the dark. • 6) The plate was read using a microplate reader. The final value was determined as the ratio of OD at 665 nm to that at 615 nm. • 7) The cAMP value was calculated for each well: Activity (%)=(signal value of sample well - mean signal value of low-signal control wells)/ (mean signal value of high-signal control wells - mean signal value of low-signal control wells). Fitting was performed using the "Nonlinear regression (curve fit)-log(agonist) vs. response -- Variable slope" model in GraphPad Prism 5.0, with the log-transformed compound concentration on the x-axis and cAMP activation rate on the y-axis. The EC50 value of the sample was calculated accordingly. Table 2: SSTR2 cAMP Test Results

NCI-H69 = assay: Cell killing in NCI-H69 by CGT (CellTiter-Glo); settings: NCI-H69, 96 h
Method: Approximately 5 µL of the PDC was added to the corresponding wells of the plate, and compared with DMSO (control, without the PDC of the present application), PTX, MMAE, and Dxd wells. The final concentration of DMSO in each well was 0.2%; • (5) The cells were incubated in a 5% CO2 incubator at 37°C for 96 h; • (6) The cell culture plate was equilibrated to room temperature, and 50 µL of CellTiter-Glo® Reagent was added to each well; • (7) The plate was placed on a shaker for 2 min to ensure complete cell lysis; • (8) After mixing, the plate was placed at room temperature to react for 10 min. The fluorescence value (in RLU) was read when the signal became stable. • c) Data analysis • (1) The inhibition (Inh %) relative to the DMSO control was calculated as follows: Inhibition (Inh%)= 100 -(RLU of compound - RLU of DMSO control)/ (RLU of DMSO control - RLU of blank)*100% • (2) The data were analyzed using Graphpad 5.0 software. A 4-parameter equation was fitted to generate a concentration-response curve to obtain the IC50. Table 3: Test Results of Cell Killing in NCI-H69

With `CC[C@H](C)[C@@H]([C@@H](CC(=O)N1CCC[C@H]1[C@H](OC)[C@@H](C)C(=O)N[C@H](C)[C@@H](O)c1ccccc1)OC)N(C)C(=O)[C@@H](NC(=O)[C@H](C(C)C)N(C)C(=O)OCc1ccc(NC(=O)[C@H](CCCNC(N)=O)NC(=O)[C@@H](NC(=O)CCCCCN2C(=O)CC(SC[C@H](NC(C)=O)C(=O)NCCOCCOCC(=O)N[C@@H](CCCNC(=N)N)C(=O)N[C@@H](CCCNC(=N)N)C(=O)N[C@@H](CC(C)C)C(=O)N[C@@H](Cc3ccccc3)C(=O)N[C@H]3CSSC[C@@H](C(=O)N[C@H](C(=O)N[C@@H](Cc4c[nH]c5ccccc45)C(=O)N[C@@H](CCCNC(=N)N)C(=O)N[C@@H](CC(=O)O)C(N)=O)[C@@H](C)O)NC(=O)[C@H]([C@@H](C)O)NC(=O)[C@H](CCCCN)NC(=O)[C@@H](Cc4c[nH]c5ccccc45)NC(=O)[C@H](Cc4ccc(O)cc4)NC3=O)C2=O)C(C)C)cc1)C(C)C` (single isomer, unassigned) [Example 10, Ac-Cys(MC-Val-Cit-PABC-MMAE)-AEEA-Arg-Arg-Leu-Phe-[Cys-Tyr-D-Trp-Lys-Thr-Cys]-Thr-Trp-Arg-Asp-NH2] the “Bottom (Inhibition at Lowest Point)” value (HL-60) was -2.25, the IC50 (HL-60) was 187 nM and the “Top (Inhibition at Highest Point)” value (HL-60) was 90.08.

`CC[C@@]1(O)C(=O)OCc2c1cc1n(c2=O)Cc2c-1nc1cc(F)c(C)c3c1c2[C@@H](NC(=O)COCNC(=O)CNC(=O)[C@H](Cc1ccccc1)NC(=O)CNC(=O)CNC(=O)CCCCCN1C(=O)CC(SC[C@H](NC(=O)CCOCCOCCOCCOCCOCCOCCN)C(=O)NCCOCCOCCOCCOCCOCCOCCC(=O)N[C@@H](CCCNC(=N)N)C(=O)N[C@@H](CCCNC(=N)N)C(=O)N[C@@H](CC(C)C)C(=O)N[C@@H](Cc2ccccc2)C(=O)N[C@H]2CSSC[C@@H](C(=O)N[C@H](C(=O)N[C@@H](Cc4c[nH]c5ccccc45)C(=O)N[C@@H](CCCNC(=N)N)C(=O)N[C@@H](CC(=O)O)C(N)=O)[C@@H](C)O)NC(=O)[C@H]([C@@H](C)O)NC(=O)[C@H](CCCCN)NC(=O)[C@@H](Cc4c[nH]c5ccccc45)NC(=O)[C@H](Cc4ccc(O)cc4)NC2=O)C1=O)CC3` (stereo partly drawn) [Example 5, PEG6-Cys(MC-Gly-Gly-Phe-Gly-NH-CH2-Dxd)-PEG6-Arg-Arg-Leu-Phe-[Cys-Tyr-D-Trp-Lys-Thr-Cys]-Thr-Trp-Arg-Asp-NH2] (I: H-[PEG6]C[PEG6]RRLFCY[dW]KTCTWRD-NH2 / II: GGFG[NHCH2OCH2CO]-Exatecan; linker I:2-II:N via Hexanoyl(6-succinimido-3yl); disulfide I:8-I:13) showed an activity at 50 µM (SSTR2; Max Dose 50000 nM) of 83.5%, an EC50 (SSTR2; SSTR2/CHO cells, Forskolin, cAMP activation rate) of 155 nM and an IC50 (NCI-H69) of 316 nM.
